Test: physchem
Conditions: pH 7.6, aqueous with cosolvent or surfactant or cyclodextrin, kinetic from dmso stock

In the case of COc1ccccc1N1CCN(C(=O)c2ccc3c(c2)NC(=O)C(CSCc2ccccc2C)N3)CC1 (stereo not shown) [Compound 4], the solubility is reported as no more than 50 µM.

Source: PMC4090677 (Frontiers in Immunology, 2014)
